Measured values from US7947279B2, “Peptide having hydrolase activity” (The Trustees of Columbia University in the City of New York, priority 2005, dated 2011).
Entries after “also recorded” stand apart in the source; their conditions may differ.

T1: Uch-L1 (Mus musculus, UniProt Q9R0P9)
T1 construct: hippocampal tissue was treated with tissue protein extraction reagent; from tissue; host or cells: mouse hippocampal slices (C57/BL6 or APP/PS1 and WT littermates)
T1 sequence (Q9R0P9 1-220): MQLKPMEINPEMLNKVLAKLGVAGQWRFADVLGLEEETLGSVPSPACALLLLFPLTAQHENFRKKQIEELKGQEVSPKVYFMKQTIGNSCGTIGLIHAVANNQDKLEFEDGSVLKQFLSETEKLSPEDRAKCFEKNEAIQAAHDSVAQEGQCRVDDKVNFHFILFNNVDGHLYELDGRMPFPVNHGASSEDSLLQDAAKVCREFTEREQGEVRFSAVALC

B1: TAT-HA-Uch-L1: fusion protein: 11-amino acid transduction domain of HIV-transactivator protein (TAT) fused with an HA tag and human Uch-L1 (protein)
chain: MQLKPMEINPEMLNKVLSRLGVAGQWRFVDVLGLEEESLGSVPAPACALLLLFPLTAQHENFRKKQIEELKGQEVSPKVYFMKQTIGNSCGTIGLIHAVANNQDKLGFEDGSVLKQFLSETEKMSPEDRAKCFEKNEAIQAAHDAVAQEGQCRVDDKVNFHFILFNNVDGHLYELDGRMPFPVNHGASSEDTLLKDAAKVCREFTEREQGEVRFSAVALCKAA
modifications: left off: small tags and cut ends

Assays:
[1] = target: T1, Uch-L1; assay: Hydrolase (ubiquitin-AMC) assay on hippocampi of injected mice; format: in vivo
Description: (§1) Measurement of Hydrolase Activity: The hydrolase assay was performed as previously described (Nishikawa et al., 2003) with slight modifications. Briefly, hippocampal tissue was treated with tissue protein extraction reagent (T-PER; Pierce) containing freshly added EDTA-free protease inhibitors. Homogenate was centrifuged at 10,000 rpm for 5 min. Protein concentration was measured in the supernatant using the BCA protein assay reagent. In some experiments hydrolysis was initiated by adding 10 μl of 20 nM Uch-L1 or Uch-L3 (Boston Biochem). The hydrolase assay was performed using fluorogenic ubiquitin-7-amino-4-methylcoumarin (ubiquitin-AMC) (Boston Biochem) as a substrate. The substrate was diluted in assay buffer (50 mM Tris-HCL, 0.5 mM EDTA, 5 mM dithiothreitol and 0.1 mg/ml ovalbumin, pH 7.6). Each reaction mixture containing 400 nM substrate and 100 μg enzyme sample was incubated for 5 min at room temperature. The reaction was monitored using a fluorescence spectrophotometer (CytoFluor Series 4000, ABI Inc) at 25° C. The free AMC fluorophore was excited at 380 nm and measured at 460 nm. Hydrolase activity was expressed as relative fluorescence intensity/min (Dang et al., 1998). In some experiments, hydrolysis was also measured on the soluble and insoluble fractions (FIG. 28D). In a group of experiments hydrolysis was measured by mixing ubiquitin-AMC with 20 nM TAT fusion proteins (FIG. 27C). In other experiments the substrate was Nedd8-AMC (Boston Biochem). LDN-57444 was purchased from Calbiochem.

[2] = tested on: Uch-L1; assay: as above; format: in vivo, mouse; conditions: 0.02-0.04 g/kg, i.p.
Description: as §1

[3] = 0.4 mg/kg, sacrificed 4 hrs after injection

Molecule | Ubiquitin-C-Terminal hydrolase activity in hippocampi [1, 3] | Uch-L1 activity [1, 3] | recovery of hydrolase activity ([1]; single i.p. injection 0.4 mg/kg) [h] | maximal inhibition of hydrolase activity ([1]; single i.p. injection 0.4 mg/kg, 30 minutes post-injection) | total Uch activity in APP/PS1 mice [2] | total Uch activity in WT mice [2]
CC(=O)O/N=C1\C(=O)N(Cc2cc(Cl)ccc2Cl)c2ccc(Cl)cc21 [LDN-57444, reference compound] | decreased | 65 % of vehicle injected controls | ≤ 8 | ~40 % of control | – | –
B1 | – | – | – | – | returned to control levels; also recorded: re-established normal total Uch activity | increased above control level; also recorded: increased total Uch activity
